Experimental findings from patent US20040087571A1, “Methods of using CCR1 antagonists as immunomodulatory agents” (Pfizer Inc, priority 2002, published 2004) are described below.

Each structure is given as a SMILES string.

As a reminder, the melting point is the temperature of the solid-liquid transition. In the case of `CC(C)(F)CC[C@H](C[C@H](O)[C@H](Cc1ccccc1)NC(=O)c1cnc2ccccc2n1)C(=O)NCCc1ccc(O)cc1` [Example 212, Quinoxaline-2-carboxylic acid {1(S)-benzyl-7-fluoro-2(S)-hydroxy-4(R)-[2-(4-hydroxy-phenyl)-ethylcarbamoyl]-7-methyl-octyl}-amide], the melting point is 138 to 140 °C.
Next, `NC(=O)[C@H](Cc1ccccc1)C[C@H](O)[C@H](Cc1ccccc1)NC(=O)c1cnc2c(F)cccc2c1` [Example 285, 8-Fluoro-quinoline-3-carboxylic acid (1(S)-benzyl-4(R)-carbamoyl-2(S)-hydroxy-5-phenyl-pentyl)-amide]: 206 to 209 °C; `CCC(CC)[C@H](C[C@H](O)[C@H](Cc1ccccc1)NC(=O)c1cnc2ccccc2n1)C(N)=O` [Example 203, Quinoxaline-2-carboxylic acid (1(S)-benzyl-4(S)-carbamoyl-5-ethyl-2(S)-hydroxy-heptyl)-amide]: 215 to 218 °C.
The result for `CNC(=O)[C@H](CC(C)C)C[C@H](O)[C@H](Cc1ccc(O)cc1)NC(=O)c1cnc2ccccc2c1` [Example 44, Quinoline-3-carboxylic acid [2(S)-hydroxy-1(S)-(4-hydroxy-benzyl)-6-methyl-4(R)-methylcarbamoyl-heptyl]-amide] reads 220.5 to 222.5 °C; that for `O=C(N[C@@H](Cc1ccccc1)[C@@H](O)C[C@H](C(=O)NO)C1(O)CCCCCC1)c1cnc2ccccc2n1` [Example 291, Quinoxaline-2-carboxylic acid [1(S)-benzyl-2(S)-hydroxy-4(S)-hydroxycarbamoyl-4-(1-hydroxy-cycloheptyl)-butyl]-amide], 118 to 119 °C.
With `CC(C)(O)CC[C@H](C[C@H](O)[C@H](Cc1cccc2ccccc12)NC(=O)c1cnc2ccccc2n1)C(N)=O` [Example 324, Quinoxaline-2-carboxylic acid (4(R)-carbamoyl-2(S),7-dihydroxy-7-methyl-1(S)-naphthalen-1-ylmethyl-octyl)-amide], the melting point lay in the range of 155 to 158 °C.
The result for `NC(=O)[C@@H](C[C@H](O)[C@H](Cc1ccccc1)NC(=O)c1cnc2ccccc2n1)C1CCOCC1` [Example 204, Quinoxaline-2-carboxylic acid [1(S)-benzyl-4(S)-carbamoyl-2(S)-hydroxy-4-(tetrahydro-pyran-4-yl)-butyl]-amide] reads 151 to 154 °C.
Next, `CC(C)(F)CC[C@H](C[C@H](O)[C@H](Cc1ccccc1)NC(=O)c1cnc2ccccc2n1)C(=O)NCCc1ccncc1` [Example 221, Quinoxaline-2-carboxylic acid [1(S)-benzyl-7-fluoro-2(S)-hydroxy-7-methyl-4(R)-(2-pyridin-4-yl-ethylcarbamoyl)-octyl]-amide]: 78 to 80 °C.
Next, `CC(C)CCNC(=O)[C@H](CC(C)C)C[C@H](O)[C@H](Cc1ccccc1)NC(=O)c1cnc2ccccc2c1` [Example 48, Quinoline-3-carboxylic acid [1(S)-benzyl-2(S)-hydroxy-6-methyl-4(R)-(3-methyl-butylcarbamoyl)-heptyl]-amide]: 153 to 154 °C; `COc1ccc(CNC(=O)[C@H](CCC(C)(C)F)C[C@H](O)[C@H](Cc2ccccc2)NC(=O)c2cnc3ccccc3n2)cc1OC` [Example 206, Quinoxaline-2-carboxylic acid [1(S)-benzyl-4(R)-(3,4-dimethoxy-benzylcarbamoyl)-7-fluoro-2(S)-hydroxy-7-methyl-octyl]-amide]: 162 to 164 °C; `COc1cccc(CNC(=O)[C@H](CCC(C)(C)F)C[C@H](O)[C@H](Cc2ccccc2)NC(=O)c2cnc3ccccc3n2)c1OC` [Example 242, Quinoxaline-2-carboxylic acid [1(S)-benzyl-4(R)-(2,3-dimethoxy-benzylcarbamoyl)-7-fluoro-2(S)-hydroxy-7-methyl-octyl]-amide]: 99 to 101 °C.
